In US11951100B2, “Formulations of RBP4 inhibitors and methods of use” (Belite Bio, LLC, priority 2019, dated 2024):
Values after ≈ are worked out from the molar mass of the structure shown.

What was measured:
[1] = Solvent shift assay in FaSSIF; format: physicochemical
Description: A solvent shift assay was performed in order to assess the effect of polymer excipients in improving supersaturation and sustainment in biorelevant media. Compound 1 was dissolved in DMSO to generate concentrated dissolved stock solution at 25 mg/mL. Stock API solution was then added to Fasted State Simulated Intestinal Fluid (FaSSIF) solution or FaSSIF solution containing predissolved polymer excipients to final concentration of compound 1 at 0.5 mg/mL. Ratios of Compound 1:polymer excipient in the final solution were either 20:80 or 40:60 (w/w). Samples were analyzed by HPLC to assess dynamic solubility of Compound 1 at various time points over a one hour period.

[2] = Non-sink dissolution, 0.1N HCl then FaSSIF; format: physicochemical
Description: Sample of solid dispersions containing Compound 1 were analyzed in a non-sink dissolution experiment. Dispersion samples and neat Compound 1 were suspended in 0.1N HCl media at a concentration of 1000 ug/mL Compound 1. Concentration of each sample was then measured by centrifugation to pellet undissolved material, and an aliquot of the supernatant was assessed by HPLC for concentration. Material was then agitated in a Distek 2100 C Dissolution apparatus, USP Type II. Instrument was operated according to standard instrument procedures provided by manufacturer. Parameters used for the experiment are shown below in Table 11. After 30 minutes, the media was modulated to FaSSIF by adding equivalent volume of FaSSIF buffer with bile salts, bringing the theoretical concentration of compound 1 to 500 μg/mL. Dissolved concentration of Compound 1 in each sample was then assessed periodically by HPLC. […] These resulting values can be seen in Table 12 below.

[3] = Melt-quench modulated DSC of Compound 1; format: physicochemical
Description: A sample of Compound 1 was analyzed by Modulated Differential Scanning Calorimetry using a TA Discovery DSC2500 with RCS90 chiller according to standard instrument procedures provided by manufacturer. Parameters used for the analysis are shown below in Table 4. Two replicates of the experiment were run with reproducible results. The resulting thermogram, shown in FIG. 10C, indicates a glass transition temperature (Tg) of about 93° C., a crystallization temperature (Tc) of about 136° C., and a Tm/Tg ratio of 1.37. The Tm/Tg ratio of 1.37 is indicative of moderate physical stability. Without being bound by theory, the Te observed quickly after Compound 1 entering a rubbery state was indicative of a propensity to crystallize. [table]

[4] = MDSC of spray dried solid dispersions; format: physicochemical; conditions: n = 3
Description: Samples of the solid dispersions containing Compound 1 were analyzed by Differential Scanning Calorimetry using a TA Discovery DSC2500 with RCS90 chiller according to standard instrument procedures provided by manufacturer. Parameters used for the analysis are shown below in Table 9. Three replicates of the experiment were run for each dispersion.

[5] = Estimated solubility by solvent aliquot addition, visual inspection; format: physicochemical; conditions: thermodynamic from solid
Description: Solubilities of Compound 1 in a few solvents were estimated. The experiments were carried out by adding the test solvent in aliquots to weighed portions of solid. Whether dissolution had occurred was judged by visual inspection after addition of each solvent aliquot. Solubility numbers were calculated by dividing the total amount of solvent used to dissolve the sample by the weight of the sample. The actual solubilities may be greater than the numbers calculated because of the use of solvent aliquots that were too large or because of slow dissolution rates. […] The solubility number is expressed as “greater than or equal to” if dissolution occurred on addition of the first solvent aliquot.

Caco-2 monolayers = test: Permeability through Caco-2 monolayers; format: in vitro ADME
Description: Several biopharmaceutically relevant parameters of the API (Compound 1) were obtained for the API. […] Based on these two biopharmaceutical parameters, this compound is possibly a BCS Class II. Solubility enhancement is critical for bioavailability of the API for dosing. Therefore, to overcome the limitation from solubility, several experiments were conducted to assess various solubility enhancement approaches utilized in formulation development

[6] = Saturated solubility at 80° C., visually estimated; format: physicochemical; conditions: Capmul MCM
[7] = Amorphous form: mDSC glass transition and TGA; format: physicochemical; conditions: preliminary TGA data
Description: To assess the feasibility of solid dispersion approach in formulation development, the glass transition temperature of the material was determined by modulated differential scanning calorimetry (mDSC). […] Therefore, as preparing an in-situ amorphous material in DSC pan, the end temperature should not ramp beyond 260° C. The amorphous samples were generated by heating the raw APIs from 25 to 250° C., followed by a rapid cooling to −60° C. The glass transition temperature (Tg) was measured by a slow heating of the generated amorphous samples from −60° C. to 250° C. The Tg for in-situ generated amorphous material from C and Form A was 93° C. and 97° C., respectively. The discrepancy in the two Tg values may simply due to the variation of water content in the samples or chemical purity.

[8] = Chemical stability at elevated temperatures (DSC heating, HPLC); format: physicochemical; conditions: Form C batch heated in DSC to a variety of temperatures and holding times
Description: The API was heated to a variety of temperatures with several holding time periods in DSC. The resulted solids in DSC pan were extracted with DMSO. The solutions of API were prepared and injected into HPLC for determination of assay and related substances. […] One of possible solution to the API degradation in hot-melt extrusion might be the addition of a plasticizer which may lower the process temperature for maintaining chemical integrity of the API.

[9] = Non-sink dissolution of unmicronized and micronized Form C in SLS in water; format: physicochemical; conditions: aqueous with cosolvent or surfactant or cyclodextrin
From the text: The enhancement in dissolution rate from micronized samples was likely due to the increase in surface area after micronization supported by microscopic images and particle sizing.

- Total Drug AUC FaSSIF ([1]; 0.5 mg/mL Compound 1 from DMSO stock into FaSSIF, one hour): 13100 min*μgA/mL
- Total Drug C60 ([1]; FaSSIF, 60 min): 91.3 μgA/mL
- AUC 5-180 IB ([2]; FaSSIF): 1300 min*μgA/mL
- C210 ([2]; final concentration): 7.1 μgA/mL
- Tm/Tg ratio ([3]; indicative of moderate physical stability): 1.37
- crystallization temperature (Tc) ([3]; melt-quenched Compound 1): about 136 °C
- glass transition temperature (Tg) ([3]; melt-quenched Compound 1): about 93 °C
- Tg [4]: 93.4 °C
- Tg Onset [4]: 89.4 °C
- solubility ([5]; 2-propanol, organic solvent or mixture): 4000 µg/mL (≈ 8.76 mM)
- solubility ([5]; acetone, organic solvent or mixture): 2000 µg/mL (≈ 4.38 mM)
- solubility ([5]; acetonitrile, organic solvent or mixture): < 1000 µg/mL
- solubility ([5]; dichloromethane, organic solvent or mixture): 2000 µg/mL (≈ 4.38 mM)
- solubility ([5]; dimethylformamide, organic solvent or mixture): 15000 µg/mL (≈ 32.9 mM)
- solubility ([5]; ethanol (absolute), organic solvent or mixture): 6000 µg/mL (≈ 13.1 mM)
- solubility ([5]; ethyl acetate, organic solvent or mixture): 1000 µg/mL (≈ 2.19 mM)
- solubility ([5]; ethyl ether, organic solvent or mixture): < 1000 µg/mL
- solubility ([5]; methanol, organic solvent or mixture): 6000 µg/mL (≈ 13.1 mM)
- solubility ([5]; tetrahydrofuran, organic solvent or mixture): 6000 µg/mL (≈ 13.1 mM)
- solubility ([5]; water): < 1000 µg/mL
- efflux (Caco-2 monolayers; apical-to-basolateral and basolateral-to-apical): no significant efflux
- absorption potential classification (Caco-2 monolayers; apical-to-basolateral and basolateral-to-apical (Absorption Systems)): high
- BCS classification (Caco-2 monolayers; based on Log D7.4 and Caco-2 data, possibly): BCS Class II
- solubility ([6]; 80 °C, oil or lipid, thermodynamic from solid): 16000 µg/mL (≈ 35.1 mM)
- saturated solubility ([6]; listed as API): 20000 µg/mL
- temperature at which continuous weight loss due to decomposition started (TGA) [7]: 260 °C
- solubility ([9]; 0.366% SLS in water, read-out: nominal solubility of the API): ~460 µg/mL (≈ 1.01 mM)
- solubility ([9]; 0.36% SLS in water, calculated from SLS concentration vs solubility profile, read-out: solubility of the API): 445 µg/mL (≈ 0.974 mM)
Structure (SMILES): CC(=O)N1CCc2c(C(=O)N3CCC(c4ccc(F)c(F)c4C(F)(F)F)CC3)n[nH]c2C1 [Compound 1, 1-(3-(4-(3,4-difluoro-2-(trifluoromethyl)phenyl)piperidine-1-carbonyl)-1,4,5,7-tetrahydro-6H-pyrazolo[3,4-c]pyridin-6-yl)ethan-1-one]
- chemical stability at elevated temperatures, HPLC related substances [8]: impurity (with RRT=0.8 in HPLC) were present in all prepared samples except the control sample
